According to US20210322651A1, “SUPPRESSION OF NEOINTIMAL FORMATION FOLLOWING VASCULAR SURGERU USING CDK8 INHIBITORS” (Senex Biotechnology, Inc., priority 2014, published 2021):

Legend:
[1] = test system: rat aortic SMCs (RASMCs); assay: RASMC proliferation ([3H]thymidine uptake); format: cell-based
Procedure: Rat aortic SMCs (RASMCs) were isolated from the thoracic aorta and cultured as described elsewhere^40. Enzymatically isolated SMCs from adult male Wistar rats were cultured in high glucose (4.5 g/L) Dulbecco's modified Eagle's medium (DMEM) (Cat#: 11995, Invitrogen, Grand Island, N.Y., USA) with 10% FBS (Invitrogen) in a CO2 incubator at 37° C. Subculture was performed when the cells were grown to the 70˜80% confluent state. We used the RASMCs at passage (P) 32 to do the [^3H]thymidine uptake assay. The P5 Sca-1^+ VSCs or P32 RASMCs were serum-starved for 24 h, and then cultured with full stem cell or regular growth medium with or without simvastatin for 24 h. [^3H]thymidine (1 μCi/ml) were added during the last 4 h of culture. The radioactivity was measured as previously described^41. […] Serum-starved RASMCs at passage 32 were treated with or without 10% FBS and Senexin (Senx A, 2.5 μM) for 24 h. n=4, *p<0.05 vs. control (−) in the same group.

[2] = test system: Sca-1+ VSCs; assay: Sca-1+ cell growth in stem cell growth medium (daily cell count for 8 days; [3H]thymidine uptake); format: cell-based, mouse
Procedure: Aortic adventitial Sca-1^+ cells were isolated and cultured as previously described^24. Briefly, the aortic arch and root together with a proportion of the heart from male 8-wk-old C57BL/6J mice were removed. Under a dissection microscope, adventitial tissues were carefully harvested. The adventitial tissues were cut into pieces (about 0.5 mm^3) and explanted onto a 3.5 cm dish in a CO2 incubator at 37° C. for 2 h. The stem cell growth medium (CellGro SCGM, CellGenix, Germany) containing 10% FBS (Gibco, USA), 10 ng/ml leukemia inhibitory factor (Lif) (Millipore, Temecula, Calif., USA) and 0.1 mmol/L 2-mercaptoethanol (Invitrogen, USA) was added and incubated for 5-7 days. Medium was changed every 2 days. […] The purity and viability of isolated Sca-1^+ cells were evaluated by immunostaining and trypan blue exclusion, respectively. […]
The P5 Sca-1^+ VSCs or P32 RASMCs were serum-starved for 24 h, and then cultured with full stem cell or regular growth medium with or without simvastatin for 24 h. […] The radioactivity was measured as previously described^41.
P7 Sca-1^+ VSCs (4×10^4/well) were seeded in stem cell medium (SCGM+10% FBS+10 ng/ml Lif+0.1 mmol/L 2-mercaptoethanol) with or without simvastatin (3 μmol/L) or Senexin A (2.5 μmol/L) in 6-well plates. […] The number of cells was counted daily for 8 days.

[3] = test system: resident VSCs (Sca-1+, NFM+, Sox17+ cells) in jugular vein isografts; assay: Immunofluorescence staining of VSC and SMC markers (Sca-1, Ki67, SMA, NFM, Sox17) in jugular vein isografts after drug treatment; format: in vivo, C57BL/6J mice
Procedure: Male C57BL/6J mice were purchased from Vital River Laboratory Animal Technology Co. Ltd, Beijing, China, and housed under a 12:12 h light-dark cycle and given free access to food and water. All animal experiments were performed according to National Institutes of Health Guidelines for the Care and Use of Laboratory Animals and approved by the Institutional Animal Care and Usage Committees at Shandong University and the University of South Carolina, USA. The jugular vein transplantation was performed using different male C57BL/6J mice as donors and recipients. Briefly, 12-wk-old male C57BL/6J mice were anesthetized with pentobarbital sodium (50 mg/kg body weight, i.p.). The operation was performed under a dissecting microscope (SZ2-ILST, Olympus Corporation, Tokyo, Japan). The right common carotid artery of a male C57BL/6J mouse was mobilized and divided. […]
(§1) Tissue sections were subjected to hematoxylin and eosin (H&E) or immunofluorescence staining as previously described^41. […] Fluorescent images were acquired by Nikon Eclipse Ti or UltraVIEW®VOX confocal microscope and analyzed with the Volocity software (PerkinElmer, Waltham, Mass., USA). […]

[4] = test system: jugular vein isografts; assay: Neointimal formation in jugular vein isografts (cuff model; H&E and SMA staining, morphological analysis); format: in vivo, C57BL/6J mice
Procedure: Male C57BL/6J mice were purchased from Vital River Laboratory Animal Technology Co. Ltd, Beijing, China, and housed under a 12:12 h light-dark cycle and given free access to food and water. All animal experiments were performed according to National Institutes of Health Guidelines for the Care and Use of Laboratory Animals and approved by the Institutional Animal Care and Usage Committees at Shandong University and the University of South Carolina, USA. The jugular vein transplantation was performed using different male C57BL/6J mice as donors and recipients. Briefly, 12-wk-old male C57BL/6J mice were anesthetized with pentobarbital sodium (50 mg/kg body weight, i.p.). The operation was performed under a dissecting microscope (SZ2-ILST, Olympus Corporation, Tokyo, Japan). The right common carotid artery of a male C57BL/6J mouse was mobilized and divided. A 1-mm cuff with a 1-mm handle (0.65 mm in diameter outside and 0.5 mm inside, F 800/200/100/200, Portex Ltd) was placed on both ends of the artery, and the ends were reverted over the cuff and ligated with an 8-0 silk ligature (130715, 130715, LingQiao). External jugular vein (1 cm) from a donor mouse was harvested and washed with saline solution, and grafted between the 2 ends of the carotid artery without changing the direction of blood flow. The ischemia time of vein segments was less than 15 min. The results are shown in Examples 7-9.
Mice at 0, 1, 3, 7, 14, 21 and 42 days after transplantation (four randomly chosen mice at each time point) were anesthetized with pentobarbital sodium (50 mg/kg body weight, i.p.) and euthanized by exsanguination. […]
From the proximal end, the last section with the cuff tube was counted as #0. […]
as §1

[5] = Senexin B, concentration not given

Row | Structure (SMILES) | rat aortic SMC (RASMC) growth ([1]; Senexin A 2.5 μM, 24 h, 10% FBS, passage 32) | Sca-1+ cell proliferation ([2]; Senexin A 2.5 μM, growth curve 8 days) | Sca-1+ cell differentiation into SMCs ([3]; local Senexin A, 7 days) | neointimal formation in vein isografts ([4]; Senexin A (3 μmon) peri-vascular in Pluronic F-127 gel immediately after transplantation, 4 weeks) | duration of inhibitory effect on neointimal formation in vein grafts ([4]; short-term peri-vascular Senexin A, after transplantation) | SMC proliferation [1, 5] | Sca-1+ cell growth [2, 5] | Sca-1+ cell differentiation into SMCs ([3]; Senexin B 20 mg/kg/d intragastric from 3 days prior, 14 and 28 days) | neointimal formation in vein isografts ([4]; Senexin B 20 mg/kg/d intragastric, started 3 days prior to transplantation, 4 wk)
1 | N#Cc1ccc2ncnc(NCCc3ccccc3)c2c1 [Senexin A] | without affecting | suppressed | inhibited | suppressed neointimal formation | 100 days |  |  |  | 
2 | CN1CCN(C(=O)c2ccc3cc(CCNc4ncnc5ccc(C#N)cc45)ccc3c2)CC1 [Senexin B] |  |  |  |  |  | had no impact | inhibited | inhibited | suppressed neointimal formation
